These results are taken from patent publication US8664221B2 (Santen Pharmaceutical Co., Ltd., priority 2008, dated 2014).

The test system of experiment [1] is carrageenan-induced paw edema model in rats. Nature of the experiment: Carrageenan-induced paw edema model. It counts as in vivo. The note with it: female Lewis rat; 10 mg/kg oral, 30 minutes before carrageenan; paw volume 3 hr after injection; read-out: Inhibition ratio of paw edema (%). As to the method: The inhibitory effect for paw edema using carrageenan-induced paw edema model in rats is known as one of the general methods for testing the inhibitory effect on inflammation on the joint and the like. Therefore, the inhibitory effect of the present compound for paw edema was carried out, the inhibition rate of paw edema was calculated, and then the anti-inflammatory effect of the present compound was evaluated based on the rate. The concrete method of the test is described below.
A 2 mg/mL test compound suspension was prepared by adding 1% methyl cellulose (base) to the test compound.
1) The weight and right hind paw volume of female Lewis rat (8˜10 weeks) were measured before drug administration.
2) The test compound suspension was administered at 10 mg/kg to the test compound group. Meanwhile, 1% methyl cellulose was administered orally at 5 mL/kg to the sham-operation group and vehicle group (control group).
3) After 30 minutes from oral administration, 0.1 mL of a 1% w/v carrageenan/distilled water solution was subcutaneously injected into right foot pad. 0.1 mL of distilled water was subcutaneously injected for sham-operation group.
4) The right hind paw volume was measured 3 hr after injection of carrageenan or distilled water.
(Formulation Concerning Estimation of Drug Activity) The increase ratio of paw volume (%)=100×(right hind paw volume 3 hr after injection of carrageenan or distilled water (mL)−right hind paw volume before the test compound administration (mL))/right hind paw volume before the test compound administration (mL) (Calculation Equation 1) The inhibition ratio of paw edema (%)=100−100×(the increase ratio of paw volume of each test compound group (%)−the increase ratio of paw volume of sham-operation group (%))/(the increase of paw volume of vehicle group (%)−the increase of paw volume of sham-operation group (%)) (Calculation Equation 2) (Test Results and Discussion)
On the technique in general: The carrageenan paw model is a standard test of acute inflammation.

For experiment [2], the system named is IL-6 production induced by lipopolysaccharide (LPS) in human corneal epithelial cells (HCE-T). Nature of the experiment: Inhibition of LPS-induced IL-6 production in human corneal epithelial cells (GR agonist activity). It is filed as cell-based. The settings on record: Corneal epithelial cell, 10 μL of 100 μM test compound solution per well, 4 hours incubation, efficacy relative to DEX. As to the method: In order to evaluate a GR agonist activity of the present compound, the inhibitory effects on the IL-6 production induced by lipopolysaccharide (LPS) in human corneal epithelial cells. IL-6 levels in the conditioned medium were measured using the HTRF human IL-6 Kit (boehringer-Ingelheim, Cat No. 62IL6PEB), and the procedure was carried out according to the protocol attached to the kit. Hereinafter, the specific method will be described.
LPS solution: After LPS was dissolved in phosphate buffer solution (hereinafter referred to as PBS(−)), the resulting solution was diluted with 10% FBS-DMEM/F12 medium, whereby a 1 μg/mL LPS solution was prepared.
After a test compound was dissolved in dimethylsulfoxide (hereinafter referred to as DMSO), the resulting solution was diluted with 10% FBS-DMEM/F12 medium, whereby a 100 μM test compound solution was prepared. A 100 μM DEX solution was prepared by the same method, and the inhibitory ratio of IL-6 production of DEX was evaluated to use for calculating efficacy (% DEX).
Used cell: SV40-immortalized human corneal epithelial cells (HCE-T) (RIKEN)
1) HCE-T cells were harvested, and seeded at 2.0×10^4 cells/0.1 mL/well in a 96-well plate.
2) After incubation overnight, the medium was removed and a 80 μL of new 10% FBS-DMEM/Ham's F12 medium was added into each well.
3) A 10 μL of test compounds solution was added into each well.
4) A 10 μL of LPS solution was added into each well.
5) As a negative control, a 10 μL of 10% FBS-DMEM/Ham's F12 medium was added into each well instead of a test compound solution and a LPS solution.
6) As a positive control, a 10 μL of 10% FBS-DMEM/Ham's F12 medium containing 1% DMSO was added into each well instead of a test compound solution.
7) After 4 hours incubation, supernatants were collected and IL-6 levels in the supernatants were quantitated using the HTRF human IL-6 Kit.
8) The inhibition ratio of IL-6 production (%) was calculated according to the following equation.
The inhibition ratio of IL-6 production (%) was calculated according to the following equation. The inhibition ratio of IL-6 production (%)=100×{1−(IL-6 level in each group−mean value of IL-6 level in negative control)/(mean value of IL-6 level in positive control−mean value of IL-6 level in negative control)} (%)
Furthermore, the inhibition ratio of IL-6 production (efficacy (% DEX)) was also calculated according to the following equation. Efficacy(% DEX)=100×{(mean value of IL-6 inhibition in compound-treated group)/(mean value of IL-6 inhibition in DEX-treated group)} (%) (Results and Discussion)

The subject of experiment [3] is choroidal neovascularization (CNV) model in rats. Nature of the experiment: Laser induced choroidal neovascularization model. The settings on record: Brown Norway male rats; 1% (w/v) eye drops four times a day or 20 mg/mL subconjunctival injection (route not given); fluorescein angiography 7 days after laser; mean of 7-8 eyes. It counts as in vivo. The procedure:
The choroidal neovascularization (CNV) model in rats is known as one of the popular methods for evaluating the CNV inhibitory effect of drugs. This method is reported in Graefe's Arch. Cli. Exp. Ophthalmol., 235, 313-319 (1997). According to this method, the CNV examinations were performed to evaluate the CNV inhibitory effect of test compounds by comparing the incidence rates of CNV in vehicle group (control group) with test compound-treated groups.
For eye drop administration, a 1% (w/v) test compound suspension was prepared by adding 0.5% polysorbate 80/saline to the test compound. For subconjunctival injection, a 20 mg/mL test compound suspension was prepared by adding 0.5% hydrogenated castor oil/saline to the test compound.
1) Brown Norway male rats (7-8 weeks) were anesthetized with intramuscular injection (1 mL/kg) of the mixed solution (5% ketamine HCl:2% xylazine HCl=7:1).
2) After mydriasis using tropicamide phenylephrine hydrochloride eye drops (trade name Mydrin P), laser photocoagulation of bruch's membrane in rats was performed with krypton laser photocoagulation machine. Laser irradiation was performed at 8 points per eye avoiding thick retinal blood vessels in ocular fundus and focusing on the depth of retina. The conditions were 100 μm spot size, 100 mW power, 0.1 second duration.
3) After laser photocoagulation, photographs of ocular fundus were taken and the laser photocoagulation (laser irradiation) points were confirmed.
1) In case of eye drops administration, a test compound suspension was administrated four times a day from laser irradiation day (the 1st day) to the 8th day. In case of subconjunctival injection, a 50 μL test compound suspension was injected into conjunctivae just after laser irradiation.
2) In vehicle group (control group), 0.5% polysorbate 80/saline or 0.5% hydrogenated castor oil/saline was used instead of a test compound suspension. And the test was performed according to the method 1).
1) 7 days after laser irradiation, 0.1 mL of 10% fluorescein was injected into rat tail vein and fluorescein angiography was performed.
2) When the fluorescent leakage was not detected in the fluorescent angiography, the spot was judged to be a negative spot. When the fluorescent leakage was detected, the spot was judged to be a positive spot. When the fluorescent leakage was detected as a little leakage, two spots were counted as one positive spot.
3) The neovascular incidence rate was calculated according to the equation 1. According to the equation 2, the ratio of neovascular incidence rate in test compound group to vehicle group was calculated. Neovascular incidence rate (%)=(Positive spots/all spots)×100 (Equation 1) Angiogenic inhibition ratio in test compound group (%)=(1−Ax/Ao)×100 (Equation 2)
Ao: Neovascular incidence rate in vehicle group (control group)
Ax: Neovascular incidence rate in test compound group

Experiment [4] deals with allergic conjunctivitis model in mice. As to the kind of experiment: Inhibitory effect on vascular hyper-permeability in allergic conjunctivitis model. It is filed as in vivo. The settings on record: male BALB/c mice, ovalbumin-sensitized; 1% (W/V) suspension instilled 15 min, 1 hr and 3 hrs before ovalbumin; Evans blue dye leakage; mean of 6 eyes. The procedure: In order to evaluate anti-allergic effect of the present compound, the inhibitory effect on the vascular hyper-permeability in allergic conjunctivitis model in mice was examined. This effect was calculated based on dye leakages of vehicle-treated group (control group) and test compound-treated group.
By adding 0.5% polysorbate 80/saline to the test compound, a 1% (W/V) test compound suspension was prepared.
1) Ovalbumin absorbed on aluminum hydroxide gel was dissolved in saline (20 μg ovalbumin/mL), and male BALB/c mice, 6 weeks old, were actively sensitized to the antigen by intraperitoneal injections of 500 μL of it.
2) On the 6th day from sensitization, sensitized mice were boosted by additional intraperitoneal injections of 500 μL ovalbumin absorbed on aluminum hydroxide gel (20 μg ovalbumin/mL).
3) On the 11th day, 12th day, 13th day, 14th day and 15th day from the first sensitization, allergic conjunctivitis were induced by instillations to the right eyes of the mice of […] of 50% glycerol solution containing 15% (W/V) ovalbumin.
4) […] of test compound suspension per eye was instilled to the right eye of the above mice 15 min, 1 hr and 3 hrs before ovalbumin instillation (three times) on the 15th day from sensitization. In vehicle-treated group (control group), the mice were instilled with 0.5% polysorbate 80/saline in substitution for test compound suspension.
5) Just before ovalbumin instillation on the 15th day from sensitization, all animals received a tail intravenous injection of 0.1% Evans blue dye. The right periocular tissues of the mice, which were the leaked parts of dye, were collected 30 min after ovalbumin instillation. The dye was extracted from the tissues with the dye extraction liquid. Then the absorbance of the dye extract was measured. The dye leakage was calculated from the absorbance value, and the inhibition ratio of the vascular hyper-permeability of test compound-treated group was calculated according to calculation equation 1. The inhibition ratio of the vascular hyper-permeability of test compound-treated group (%)=(1−Ax/Ao)×100 (Calculation Equation 1) • Ao: Dye leakage in vehicle-treated group (control group) • Ax: Dye leakage in test compound-treated group (Test Results and Discussion)

SMILES strings stand for the structures.

What is called Emax is the maximal effect, on the per cent scale that the assay sets. For the compound `COc1ccccc1NCc1c(-c2ccc(OS(=O)(=O)C(C)C)cc2OC)ccc2c1N(C)C(=O)C(C)(C)N2` [Compound No. 2-5], the inhibition in vivo at 10 mg/kg in experiment [1] came out at 40%. In experiment [2], this compound gave a maximal effect (Emax) of 74%.

Regarding `COc1cc(OS(=O)(=O)C(C)C)ccc1-c1ccc2c(c1COc1cc(F)ccc1C)N(C)C(=O)C(C)(C)N2` [Compound No. 1-7, 8-(5-Fluoro-2-methylphenoxymethyl)-7-(4-isopropylsulfonyloxy-2-methoxyphenyl)-1,3,3-trimethyl-3,4-dihydro-1H-quinoxalin-2-one], in experiment [1], the inhibition in vivo at 10 mg/kg is 43%. In experiment [2], this compound yielded an Emax of 94%.

Turning to `COc1cc(OS(=O)(=O)C2CC2)ccc1-c1ccc2c(c1COc1cc(F)ccc1C)N(C)C(=O)C(C)(C)N2` [Compound No. 1-13, 7-(4-Cyclopropylsulfonyloxy-2-methoxyphenyl)-8-(5-fluoro-2-methyl-phenoxymethyl)-1,3,3-trimethyl-3,4-dihydro-1H-quinoxalin-2-one], the inhibition in vivo at 10 mg/kg in experiment [1] was 67%. Further, the “Angiogenic inhibition ratio (%)” value in experiment [3] was found to be 38%. The compound also came in with an Emax in experiment [2] of 100%.

On to `COc1cc(OS(=O)(=O)C2CCCC2)ccc1-c1ccc2c(c1CNc1cc(F)ccc1C)N(C)C(=O)C(C)(C)N2` [Compound No. 1-43, 7-(4-cyclopentylsulfonyloxy-2-methoxyphenyl)-8-(5-fluoro-2-methyl-phenylaminomethyl)-1,3,3-trimethyl-3,4-dihydro-1H-quinoxalin-2-one], for which, in experiment [3], the “Angiogenic inhibition ratio (%)” value is on record as 18%. The Emax in experiment [2] came to 82%.

With `CCS(=O)(=O)Oc1ccc(-c2ccc3c(c2COc2cc(F)ccc2C)N(C)C(=O)C(C)(C)N3)c(OC)c1` [Compound No. 1-6, 7-(4-Ethylsulfonyloxy-2-methoxyphenyl)-8-(5-fluoro-2-methyl-phenoxymethyl)-1,3,3-trimethyl-3,4-dihydro-1H-quinoxalin-2-one], in experiment [1], the inhibition in vivo at 10 mg/kg was found to be 63%. The same compound gave an Emax in experiment [2] of 86%.

In the case of `CCCS(=O)(=O)Oc1ccc(-c2ccc3c(c2CNc2ccccc2OC)N(C)C(=O)C(C)(C)N3)c(OC)c1` [Compound No. 2-7, 8-(2-Methoxyphenylaminomethyl)-7-(2-methoxy-4-propylsulfonyl-oxyphenyl)-1,3,3-trimethyl-3,4-dihydro-1H-quinoxalin-2-one], the “The inhibition ratio of the vascular hyper-permeability (%)” value in experiment [4] turned out to be 35%. In addition, in experiment [1], the inhibition in vivo at 10 mg/kg stood at 52%. In experiment [2], this compound registered an Emax of 94%.

Turning to `COc1cc(OS(=O)(=O)C2CC2)ccc1-c1ccc2c(c1COc1cc([N+](=O)[O-])ccc1C)N(C)C(=O)C(C)(C)N2` [Compound No. 1-32, 7-(4-Cyclopropylsulfonyloxy-2-methoxyphenyl)-8-(2-methyl-5-nitrophenoxymethyl)-1,3,3-trimethyl-3,4-dihydro-1H-quinoxalin-2-one], the inhibition in vivo at 10 mg/kg in experiment [1] came out at 61%. This compound showed a maximum response (Emax) in experiment [2] of 90%.

For the compound `COc1cc(OS(C)(=O)=O)ccc1-c1ccc2c(c1COc1cc(F)ccc1C)N(C)C(=O)C(C)(C)N2` [Compound No. 1-1, 8-(5-Fluoro-2-methylphenoxymethyl)-7-(2-methoxy-4-methylsulfonyloxyphenyl)-1,3,3-trimethyl-3,4-dihydro-1H-quinoxalin-2-one], the “The inhibition ratio of the vascular hyper-permeability (%)” value in experiment [4] amounted to 36%. The “Angiogenic inhibition ratio (%)” value in experiment [3] amounted to 31%. The maximal effect (Emax) in experiment [2] turned out to be 92%.

In the case of `COc1cc(OS(=O)(=O)C2CC2)ccc1-c1ccc2c(c1CNc1cc(F)ccc1C)N(C)C(=O)C(C)(C)N2`, in experiment [1], the inhibition in vivo at 10 mg/kg is 52%. The compound further showed an Emax in experiment [2] of 81%.
